Key:
[1] = Liver cancer model mouse, body weight; type: in vivo, mice; conditions: 30 mg/kg 5-FU or 50 mg/kg IC-2 intraperitoneally every three days
Protocol: CD44-positive HuH-7 cells were subcutaneously transplanted in mice. Next, the engrafted mice were divided into 3 groups (DMSO group: 5 mice; 5-FU group: 4 mice; and IC-2 group: 4 mice). Then, DMSO was added to prepare 30 mg/kg of 5-FU and 50 mg/kg of IC-2 such that each liquid volume was 100 μL; and 100% DMSO, a solvent for each drug, was used as a control sample. Subsequently, each drug was dosed intraperitoneally every three days. The body weight of each mouse and the long and short diameters of a tumor were measured every three days. The tumor volume was calculated by using the following equation: Tumor volume=Long diameter×(Short diameter)^2×0.5. The volume at Day 0 was used to normalize each tumor volume, and then a graph was created. To fully evaluate a 5-FU effect, the 5-FU dose was set to an amount 2 times the regular amount 15 mg/kg used in research articles. The concentration of IC-2 corresponding to a concentration at which Wnt/β-catenin signaling was inhibited in vitro was calculated. Then, the concentration was doubled to set an IC-2 dose.

unsorted HuH-7 cells = test: Mice subcutaneously transplanted with unsorted HuH-7 cells; type: in vivo; conditions: mice transplanted with unsorted HuH-7 cells instead of CD44-positive HuH-7 cells
From the text: The effect of treating malignant tumors may be evaluated by imaging, endoscopic examination, biopsy, or detection of a malignant tumor marker. In addition, the effect of treating cancer stem cells may be evaluated by imaging, endoscopic examination, biopsy, or detection of a cancer stem cell marker. In addition, the effect of treating fibrosis may be evaluated by imaging, endoscopic examination, biopsy, or detection of a fibrosis marker. […] At this time, the level of a marker after administration of a therapeutic drug may be 0.7, 0.5, 0.3, or 0.1 times the level before the administration (or of a control). […] At this time, the number of marker-positive cells after administration of the therapeutic drug may be 0.7, 0.5, 0.3, or 0.1 times the number before the administration (or of a control). Note that in Example 6 below, the therapeutic effect was evaluated using mice in which CD44-positive HuH-7 cells had been subcutaneously transplanted. The present inventors also replaced the above CD44-positive HuH-7 cells by unsorted HuH-7 cells.

HuH-7 cells = test: Growth inhibitory effect on cancer cells (WST assay), Example 6.3; type: cell-based, human
Protocol: HuH-7 cells, a human liver cancer cell line, were cultured on 10-cm cell culture dishes (TPP Techno Plastic Products AG, Trasadingen, Switzerland) by using DMEM under conditions at 5% CO2, 37° C., and 100% humidity. When the cells were 70 to 90% confluent, 200 μL of 0.25% Trypsin/1 mM EDTA solution, which had been prepared by diluting the stock solution 10-fold with PBS (−), was added to detach the cells. Then, the cells were centrifuged at 1000 rpm for 3 min at room temperature. The cells recovered were subcultured at a 1:4 split ratio.
First, 70 to 90% confluent HuH-7 cells were harvested and seeded (n=3) at 1×10^4 cells/well of a 96-well plate (TPP). After 24 h, IC-2 was added to the cells and the mixture was cultured at 37° C. Each control sample (0 μM) used was 1% DMSO, a solvent for each compound. The concentrations of IC-2 used were 0, 1, 5, 10, 25, and 50 μM
Next, day 4 after the IC-2 treatment, 100 μL of DMEM-diluted 10% Cell Counting Kit-8 (DOJINDO LABORATORIES, Kumamoto) was added. The mixture was incubated at 37° C. for 60 min and its absorbance (at a measurement wavelength of 450 nm/control wavelength of 600 nm) was measured by using a Sunrise Rainbow RC (Tecan Group Ltd., Mannedorf, Switzerland). Absorbance for the cells alone was calculated by subtracting, from the reading obtained, absorbance for 10% Cell Counting Kit-8 alone. […]

[2] = test system: cancer stem cells (CD44) in HuH-7 cells; test: Inhibitory effect on cancer stem cells (FCM analysis of CD44), Example 2.4; type: cell-based, human; conditions: comparison with IC-2
Protocol: CD44, a cancer stem cell marker, was used as an indicator to examine an inhibitory effect of each compound on cancer stem cells. The concentrations of the respective compounds were as described in FIG. 32. Each control sample used was 0.1% DMSO, a solvent for each compound. In the figures, the “‡” indicates a significant difference of p<0.01.
First, 70 to 90% confluent HuH-7 cells were harvested and seeded at 1.5×10^6 cells per 10-cm cell culture dish. After 24 h, each compound was added to the cells and the mixture was cultured at 37° C. At 48 h after the compound treatment, the cells were harvested from each culture dish. The cells were centrifuged at 1000 rpm and at 4° C. for 3 min to remove a supernatant and were then washed twice with 1 mL of 0.5% FBS/2 mM EDTA/PBS. Next, the cells were suspended in 500 μL of 5% BSA/0.5% FBS/2 mM EDTA/PBS for blocking at 4° C. for 15 min. Then, 5 μL of a mouse anti-human CD44 monoclonal antibody (156-3C11, Cell Signaling Technology Inc., Danvers, Mass.) was added to 500 μL of the cell suspension. The mixture was resuspended and subjected to a primary antibody reaction in a dark room at 4° C. for 30 min. After that, the cells were washed 3 times with 1 mL of 0.5% FBS/2 mM EDTA/PBS. Subsequently, 100 μL of Alexa Fluor 488-labeled IgG (H+L) (ab150113, Abcam Ltd., Cambridge, UK), which had been diluted 200-fold with 5% BSA/0.5% FBS/2 mM EDTA/PBS, was added and the cells were suspended. Then, a secondary antibody reaction was carried out in a dark room at 4° C. for 30 min. After that, the cells were washed 3 times with 1 mL of 0.5% FBS/2 mM EDTA/PBS. Thereafter, the cells were suspended in 500 μL of 0.5% FBS/2 mM EDTA/PBS and were made to pass through a 40 μm-mesh column (Becton, Dickinson and Company, Franklin Lakes, N.J.). A Beckman Coulter-Moflo XDP (Beckman Coulter Inc., Fullerton, Calif.) was used for analysis. Following the analysis, further analysis was conducted by adding 2 μL of 0.25 mg/mL Propidium Iodide (PI). The same experiment was repeated four times.

| Compound | body weight [1] | effect of treating a malignant tumor (unsorted HuH-7 cells) | growth of HuH-7 cells (HuH-7 cells; day 4) | IC50 (HuH-7 cells; day 4, 0-50 μM, control 1% DMSO) [µM] | inhibitory effect on cancer stem cells compared with IC-2 [2] |
| --- | --- | --- | --- | --- | --- |
| O=C1C(Cc2ccccc2)N2C(=O)CCN(C(=O)NCc3ccccc3)C2CN1Cc1cccc2ccccc12 (centres unmarked) [IC-2] | no change in the body weight | exhibits an effect of treating a malignant tumor | inhibited the growth of HuH-7 cells | 25.9 | – |
| COc1ccc(COc2ccc(CNC(=O)N3CCC(=O)N4C(Cc5ccccc5)C(=O)N(Cc5cccc6ccccc56)CC34)cc2)cc1 (centres unmarked) [IC-2-OPMB] | – | – | – | – | more potent inhibitory effect on cancer stem cells than IC-2 |

— patent US10597398B2, “Suppression and regeneration promoting effect of low molecular weight compound on cancer and fibrosis” (NATIONAL UNIVERSITY CORPORATION TOTTORI UNIVERSITY, priority 2015, dated 2020)
